Test results reported in US4366143A, “Assay for the free portion of substances in biological fluids” (Amersham International Public Limited Company, priority 1979, dated 1982).
Like-named read-outs stand apart in the source and are kept apart here.

What was measured:
transcortin = target: T1, transcortin (Homo sapiens, UniProt P08185); test: Binding of cortisol tracers to serum proteins / transcortin with and without ANS (Example 4); details: for % Tracer Bound to Serum Proteins (Corrected for Non-Specific Binding): charcoal extracted human serum
T1 construct: charcoal extracted human serum; from tissue; host or cells: human serum, charcoal extracted (unpurified)
T1 sequence (P08185 23-405): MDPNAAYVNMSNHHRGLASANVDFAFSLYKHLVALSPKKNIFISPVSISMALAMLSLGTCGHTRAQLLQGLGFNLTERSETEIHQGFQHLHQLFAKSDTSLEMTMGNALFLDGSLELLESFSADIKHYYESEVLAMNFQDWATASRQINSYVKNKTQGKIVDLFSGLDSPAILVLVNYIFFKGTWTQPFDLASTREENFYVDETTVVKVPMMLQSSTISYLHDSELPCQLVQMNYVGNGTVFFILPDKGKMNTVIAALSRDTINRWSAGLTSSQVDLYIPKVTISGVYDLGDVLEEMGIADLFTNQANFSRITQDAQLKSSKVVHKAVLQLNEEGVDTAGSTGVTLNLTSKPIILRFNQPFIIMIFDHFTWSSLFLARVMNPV
Experimental: The protocol was as follows:
B. 200 μl buffer (containing either 0 or 600 μg of 8-anilinonaphthalene sulphonic acid (ANS) as a cortisol binding site blocking agent).
A mixture of A and B was incubated at 37° C. for one hour. […] The reaction tubes were mixed for one hour at room temperature. A 0.5 ml aliquot of the supernatant was then removed for counting.

[1] = system: rabbit anti-cortisol serum
Experimental: This experiment is designed to test the binding of cortisol-3-carboxymethyloxime-histamine-I^125 tracer with an antiserum raised to a cortisol-3-carboxymethyloxime-thyroglobulin conjugate. The protocol was as follows:
50 μl of serum was mixed with 200 μl of cortisol-3-carboxymethyloxime-histamine-I^125 tracer solution. The specific activity of the tracer was 3.9 curies per milligram. The tracer concentration was 125 picomolar. The buffer contained 28 g/l Na2 HPO4.12H2 O, 4.6 g/l citric acid monohydrate, 9 g/l NaCl, 3 g/l E.D.T.A. disodium salt, 0.5 g/l NaN3, 1 g/l gelatin and 1 g/l of 8-anilinonaphthalene sulphonic acid (the latter to inhibit binding of cortisol to transcortin and albumin).
To the mixture of tracer and serum, 200 μl of a suspension of polystyrene latex particles (0.9 micron diameter) coated with the rabbit anti-cortisol serum was added. The buffer was 28 g/l Na2 HPO4.12H2 O, 4.6 g/l citric acid monohydrate, 0.5 g/l NaN3 and 2 g/l bovine serum albumin. The effective antiserum dilution in the assay tube was 1/20000.
The resulting mixture was vortexed and incubated at 37° C. for 1 hour. The antibody coated particles were centrifuged down at 1500 g for 15 minutes and the liquid phase decanted off.

[2] = system: antiserum raised to a 21-hemisuccinate-cortisol conjugate to bovine serum albumin; details: heterologous tracer-immunogen pair
serum albumin = details: U.S. Pat. No. 4,069,305; cited from earlier work

cortisol-3-carboxymethyloxime-histamine I^125
binding to transcortin (in words) (transcortin): binds very weakly to transcortin
% Tracer Bound to Serum Proteins (Corrected for Non-Specific Binding) (transcortin; ANS 0 μg/tube): 7%
% Tracer Bound to Serum Proteins (Corrected for Non-Specific Binding) (transcortin; ANS 600 μg/tube): 5%
displacement from transcortin by ANS blocking agent (in words) (transcortin; high concentrations of ANS): not significantly displaced by the ANS blocking agent
% Radioactivity in the antibody Coated Particles ([1]; Total Plasma Cortisol 0 μg/dl): 65.4%
% Radioactivity in the antibody Coated Particles ([1]; Total Plasma Cortisol 1 μg/dl): 56.6%
% Radioactivity in the antibody Coated Particles ([1]; Total Plasma Cortisol 4 μg/dl): 43.0%
% Radioactivity in the antibody Coated Particles ([1]; Total Plasma Cortisol 10 μg/dl): 30.6%
% Radioactivity in the antibody Coated Particles ([1]; Total Plasma Cortisol 28 μg/dl): 19.2%
% Radioactivity in the antibody Coated Particles ([1]; Total Plasma Cortisol 60 μg/dl): 12.2%
affinity of antiserum for tracer (in words) [2]: sufficient affinity

C[C@]12CCC(=NOCC(=O)NCCc3c[nH]cn3)C=C1CC[C@@H]1[C@@H]2[C@@H](O)C[C@@]2(C)[C@H]1CC[C@]2(O)C(=O)CO
binding to serum albumin relative to cortisol (in words) (serum albumin): binds much less strongly to serum albumin than cortisol itself
